Source: US10544155B2, “Spirocyclic quinolizine derivatives useful as HIV integrase inhibitors” (MERCK SHARP & DOHME CORP., priority 2015, dated 2020)
Read-outs that look alike come from different tables or passages of the source.

System: HIV-1 (NL4-3 strain)
Assay: Assay for inhibition of HIV replication (MT4-gag-GFP reporter cell line, wild type cell assay, Viking)
Type: cell-based
Conditions: IP from 4-parameter dose response curve
Description: This assay is a kinetic assay that employs a reporter cell line (MT4-gag-GFP) to quantify the number of new cells infected in each round of replication.
MT4-GFP cells (250,000 cells/ml) were bulk-infected with HIV-1 (NL4-3 strain) at low multiplicity of infection (MOI) in RPMI+10% FBS for 24 hours. Cells were then washed once in RPMI+10% FBS and resuspended in RPMI+0% or 10% or 100% normal human serum (NHS). Test compounds were serial-diluted in DMSO on ECHO. The infected MT4-GFP cells were added to a 384-well poly-D-lysine coated black plate with clear bottom in which the diluted test compounds were placed. The cells were seeded at 8,000 cells per well and the final DMSO concentration was 0.4%. The infected cells (Green GFP cells) were quantified at both 24 and 48 hours post incubation using Acumen eX3. Viral reproductive ratio (R0) was determined using the number of infected cells at 48 hours divided by the number of infected cells at 24 hours. Percent viral growth inhibition was calculated by [1−(R−Rtripledrug)/(RDMSO−Rtripledrug)]*100. Compound potency IP or IC50 was determined by a 4-parameter dose response curve analysis.

[1] = MT4-GFP cells infected with HIV-1 NL4-3, 0% normal human serum, read-out: WILD TYPE CELL ASSAY Viking IP (0% NHS)
[2] = MT4-GFP cells infected with HIV-1 NL4-3, 100% normal human serum, read-out: WILD TYPE CELL ASSAY Viking IP (100% NHS)
[3] = Human immunodeficiency virus 1, NL43, MT4-GFP cells infected with HIV-1 NL4-3, 0% normal human serum, read-out: WILD TYPE CELL ASSAY Viking IP (0% NHS)
[4] = Human immunodeficiency virus 1, NL43, MT4-GFP cells infected with HIV-1 NL4-3, 100% normal human serum, read-out: WILD TYPE CELL ASSAY Viking IP (100% NHS)

| Compound | IC50 [1] [nM] | IC50 [2] [nM] | IC50 [3] [nM] | IC50 [4] [nM] |
| --- | --- | --- | --- | --- |
| CC1(C)C(=O)c2c(O)c(=O)c(C(=O)NCc3ccc(F)cc3F)cn2CC12CCCO2 (single isomer, unassigned) [Compound 1] | 0.9 | 175 |  |  |
| CC1(C)C(=O)c2c(O)c(=O)c(C(=O)NCc3ccc(F)cc3F)cn2CC12CCCO2 (single isomer, unassigned) [Compound 2] | 1.2 | 2300 |  |  |
| CC1(C)C(=O)c2c(O)c(=O)c(C(=O)NCc3cccc(Cl)c3F)cn2CC12CCCO2 (single isomer, unassigned) [Compound 6] |  |  | 1.8 | 581 |
| CC1(C)C(=O)c2c(O)c(=O)c(C(=O)NCc3ccc(F)c(Cl)c3F)cn2CC12CCCO2 (single isomer, unassigned) [Compound 8] |  |  | 1.7 | 585 |
| CC1(C)C(=O)c2c(O)c(=O)c(C(=O)NCc3ccc(F)cc3)cn2CC12CCCO2 (single isomer, unassigned) [Compound 10] |  |  | 7 | 425 |
| CC1n2cc(C(=O)NCc3ccc(F)cc3F)c(=O)c(O)c2C(=O)C(C)(C)C12CCCO2 (single isomer, unassigned) [Compound 14] |  |  | 2 | 3300 |
| CC1COC2(C1)Cn1cc(C(=O)NCc3cccc(Cl)c3F)c(=O)c(O)c1C(=O)C2(C)C (single isomer, unassigned) [Compound 20] | 2 | 1160 |  |  |
| CC1COC2(C1)Cn1cc(C(=O)NCc3cccc(Cl)c3F)c(=O)c(O)c1C(=O)C2(C)C (single isomer, unassigned) [Compound 21] | 1.3 | 226 |  |  |
| CC1COC2(C1)Cn1cc(C(=O)NCc3cccc(Cl)c3F)c(=O)c(O)c1C(=O)C2(C)C (single isomer, unassigned) [Compound 22] | 0.8 | 1540 |  |  |
| CC1COC2(C1)Cn1cc(C(=O)NCc3cccc(Cl)c3F)c(=O)c(O)c1C(=O)C2(C)C (single isomer, unassigned) [Compound 23] | 1 | 717 |  |  |
| CC1COC2(C1)Cn1cc(-c3nnc(Cc4ccc(F)cc4F)s3)c(=O)c(O)c1C(=O)C2(C)C (single isomer, unassigned) [Compound 24] |  | 354 | 2.9 |  |
| CC1COC2(C1)Cn1cc(-c3nnc(Cc4ccc(F)cc4F)s3)c(=O)c(O)c1C(=O)C2(C)C (single isomer, unassigned) [Compound 25] | 3.8 | 1120 |  |  |
| CC1(C)C(=O)c2c(O)c(=O)c(C(=O)NCc3ccc(F)cc3F)cn2CC12CCCCO2 (stereo not drawn) [Compound 3] | 4.2 | 2540 |  |  |
| C/C=C1\C(=O)c2c(O)c(=O)c(C(=O)NCc3ccc(F)cc3F)cn2CC12CCOCC2 [Compound 5] | 3.9 | 592 |  |  |
| CC1(C)C(=O)c2c(O)c(=O)c(C(=O)NCc3cccc(Cl)c3F)cn2CC12CCCO2 (stereo not drawn) [Compound 7] |  |  | 1.8 | > 8000 |
| CC1(C)C(=O)c2c(O)c(=O)c(C(=O)NCc3ccc(F)c(Cl)c3F)cn2CC12CCCO2 (stereo not drawn) [Compound 9] |  |  | 1.7 | 6670 |
| CC1(C)C(=O)c2c(O)c(=O)c(C(=O)NCc3ccc(F)cc3)cn2CC12CCCO2 (stereo not drawn) [Compound 11] |  |  | 7.8 | 4920 |
| CC1(C)C(=O)c2c(O)c(=O)c(-c3nnc(Cc4ccc(F)cc4F)s3)cn2CC12CCCO2 (stereo not drawn) [Compound 12] | 5 | > 8000 |  |  |
| CC1(C)C(=O)c2c(O)c(=O)c(-c3nnc(Cc4ccc(F)cc4F)s3)cn2CC12CCCO2 (stereo not drawn) [Compound 13] | 5.4 | 585 |  |  |
| CC1n2cc(C(=O)NCc3ccc(F)cc3F)c(=O)c(O)c2C(=O)C(C)(C)C12CCCO2 (stereo not drawn) [Compound 15] |  |  | 2.4 | 149 |
| CC1COC2(C1)Cn1cc(C(=O)NCc3ccc(F)cc3F)c(=O)c(O)c1C(=O)C2(C)C (stereo not drawn) [Compound 16] |  | 634 | 3.1 |  |
| CC1COC2(C1)Cn1cc(C(=O)NCc3ccc(F)cc3F)c(=O)c(O)c1C(=O)C2(C)C (stereo not drawn) [Compound 17] | 3.1 | 307 |  |  |
| CC1COC2(C1)Cn1cc(C(=O)NCc3ccc(F)cc3F)c(=O)c(O)c1C(=O)C2(C)C (stereo not drawn) [Compound 18] | 2.7 | 855 |  |  |
| CC1COC2(C1)Cn1cc(C(=O)NCc3ccc(F)cc3F)c(=O)c(O)c1C(=O)C2(C)C (stereo not drawn) [Compound 19] | 2.6 | 453 |  |  |
